From patent publication US4596893A (priority 1985, dated 1986)

How the values were obtained:
Test in all cases: Herbicide activity test in green house
Type in all cases: in vivo
[1] = test system: Italian grass; details: sprayed at 2-4 leaves, evaluated on 14th day
Method: (§1) In culture dishes white mustard, pig weed, fat hen, autumn wheat, Italian grass and corn seeds were sown. When the seeds were sprouted 10% EC and 10% WSC were prepared from the compounds to be tested, and after dilution with water 0.2% spray was prepared. 2-4 leaves plants were sprayed with this liquid so that for each compound a dose corresponding to 2.5-5-10 kg./ha active ingredient was used. On the 14th day after the treatment the extent of the injury of the plants was evaluated and expressed in %.

[2] = test system: autumn wheat; details: sprayed at 2-4 leaves, evaluated on 14th day
Method: as §1

[3] = test system: corn; details: sprayed at 2-4 leaves, evaluated on 14th day
Method: as §1

[4] = test system: fat hen; details: sprayed at 2-4 leaves, evaluated on 14th day
Method: as §1

[5] = test system: pig weed; details: sprayed at 2-4 leaves, evaluated on 14th day
Method: as §1

[6] = test system: white mustard; details: sprayed at 2-4 leaves, evaluated on 14th day
Method: as §1

[7] = test system: white mustard; details: dose 1.25 kg/ha, sprayed at 2-4 leaves, evaluated on 14th day
[8] = test system: pig weed; details: dose 1.25 kg/ha, sprayed at 2-4 leaves, evaluated on 14th day
[9] = test system: fat hen; details: dose 1.25 kg/ha, sprayed at 2-4 leaves, evaluated on 14th day
[10] = test system: Italian grass; details: dose 1.25 kg/ha, sprayed at 2-4 leaves, evaluated on 14th day
[11] = test system: autumn wheat; details: dose 1.25 kg/ha, sprayed at 2-4 leaves, evaluated on 14th day
[12] = test system: corn; details: dose 1.25 kg/ha, sprayed at 2-4 leaves, evaluated on 14th day

SMILES	extent of the injury of the plants, Italian grass ([1]; dose 2.5 kg/ha) [%]	extent of the injury of the plants, Italian grass ([1]; dose 5.0 kg/ha) [%]	extent of the injury of the plants, autumn wheat ([2]; dose 2.5 kg/ha) [%]	extent of the injury of the plants, autumn wheat ([2]; dose 5.0 kg/ha) [%]	extent of the injury of the plants, corn ([3]; dose 2.5 kg/ha) [%]	extent of the injury of the plants, corn ([3]; dose 5.0 kg/ha) [%]	extent of the injury of the plants, fat hen ([4]; dose 2.5 kg/ha) [%]	extent of the injury of the plants, fat hen ([4]; dose 5.0 kg/ha) [%]	extent of the injury of the plants, pig weed ([5]; dose 2.5 kg/ha) [%]	extent of the injury of the plants, pig weed ([5]; dose 5.0 kg/ha) [%]	extent of the injury of the plants, white mustard ([6]; dose 2.5 kg/ha) [%]	extent of the injury of the plants, white mustard ([6]; dose 5.0 kg/ha) [%]	extent of the injury of the plants, white mustard [7] [%]	extent of the injury of the plants, pig weed [8] [%]	extent of the injury of the plants, fat hen [9] [%]	extent of the injury of the plants, Italian grass [10] [%]	extent of the injury of the plants, autumn wheat [11] [%]	extent of the injury of the plants, corn [12] [%]
O=[N+]([O-])c1cc([N+](=O)[O-])c(O)c(C(F)(F)F)c1 [2-trifluoromethyl-4,6-dinitro-phenol, 2-Trifluoromethyl-4,6-dinitro-phenol]	10	30	5	10	5	15	90	100	85	100	75	95	45	50	75	0	0	0
O=[N+]([O-])c1cc([N+](=O)[O-])c(O)c(C(F)(F)F)c1 [2-trifluoromethyl-4,6-dinitro-phenol-K]	10	15	0	15	10	15	90	100	85	100	75	90	65	45	70	0	0	0
CNC.O=[N+]([O-])c1cc([N+](=O)[O-])c(O)c(C(F)(F)F)c1 [2-trifluoromethyl-4,6-dinitro-phenol-dimethyl-amine]	0	20	0	10	0	10	75	85	65	80	55	75	45	50	70	0	0	0
CC(=O)Oc1c([N+](=O)[O-])cc([N+](=O)[O-])cc1C(F)(F)F [2-trifluoromethyl-4,6-dinitrophenol methyl carbonyl]	10	20	0	10	0	10	90	100	80	95	70	90	40	50	70	0	0	0
O=[N+]([O-])c1cc([N+](=O)[O-])c(O)c(C(F)(F)F)c1 [2-trifluoromethyl-4,6-dinitro-phenol-Na]	10	15	0	15	10	15	90	100	85	100	80	100	50	60	70	0	0	0
CCC(=O)Oc1c([N+](=O)[O-])cc([N+](=O)[O-])cc1C(F)(F)F [2-trifluoromethyl-4,6-dinitro-phenol-ethyl carbonyl]	0	10	0	10	0	10	70	80	60	80	50	80	40	40	60	0	0	0
O=[N+]([O-])c1cc([N+](=O)[O-])c(O)c(C(F)(F)F)c1 [2-trifluoromethyl-4,6-dinitro-phenol-diethanol-amine]	–	10	–	10	–	10	75	80	60	85	60	80	40	50	70	0	0	0
